# According to ChEMBL document CHEMBL1201862, “PubChem BioAssay data set” (2004):
# Calls of active or inactive are those of the source.
# What was measured:
# [1] = molecular target: T1, Short transient receptor potential channel 4 (Mus musculus, UniProt Q9QUQ5); test: calcium entry via TRPC4 opening agents – cell-based, HEK293 TRPC4/mu-opioid, Fluo-4 calcium, dose response (AID 434937); format: functional
# T1 sequence (Q9QUQ5 whole entry): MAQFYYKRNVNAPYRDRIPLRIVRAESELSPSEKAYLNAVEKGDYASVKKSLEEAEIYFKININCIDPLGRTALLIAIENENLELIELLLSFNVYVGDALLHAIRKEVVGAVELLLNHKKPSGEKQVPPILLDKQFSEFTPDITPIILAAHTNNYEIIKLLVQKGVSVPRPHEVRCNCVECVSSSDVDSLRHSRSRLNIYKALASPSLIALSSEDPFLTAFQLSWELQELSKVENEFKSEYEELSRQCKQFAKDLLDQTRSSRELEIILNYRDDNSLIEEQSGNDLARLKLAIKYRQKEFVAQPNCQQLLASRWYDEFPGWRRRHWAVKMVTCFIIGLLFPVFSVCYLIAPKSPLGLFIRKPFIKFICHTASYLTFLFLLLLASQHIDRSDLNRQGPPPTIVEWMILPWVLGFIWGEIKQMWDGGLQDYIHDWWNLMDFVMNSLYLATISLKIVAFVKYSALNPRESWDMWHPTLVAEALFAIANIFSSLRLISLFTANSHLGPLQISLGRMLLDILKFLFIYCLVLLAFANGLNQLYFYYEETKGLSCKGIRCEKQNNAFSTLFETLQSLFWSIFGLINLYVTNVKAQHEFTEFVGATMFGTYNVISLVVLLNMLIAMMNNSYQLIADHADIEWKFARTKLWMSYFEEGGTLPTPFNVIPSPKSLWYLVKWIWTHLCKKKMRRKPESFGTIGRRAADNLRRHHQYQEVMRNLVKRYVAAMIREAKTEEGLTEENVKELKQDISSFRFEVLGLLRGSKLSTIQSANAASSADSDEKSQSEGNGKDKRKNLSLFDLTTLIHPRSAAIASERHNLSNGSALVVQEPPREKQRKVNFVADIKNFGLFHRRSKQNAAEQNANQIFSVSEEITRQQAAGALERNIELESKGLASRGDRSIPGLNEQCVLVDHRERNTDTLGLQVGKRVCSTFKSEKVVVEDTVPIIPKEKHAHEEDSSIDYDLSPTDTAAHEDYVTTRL
# [2] = molecular target: T2, Adenosylmethionine-8-amino-7-oxononanoate aminotransferase (Mycobacterium tuberculosis, UniProt P9WQ81); test: Mycobacterium tuberculosis BioA enzyme inhibitor Measured in Biochemical System Using Plate Reader - 2163-02_Inhibitor_Dose_CherryPick_Activity.; format: functional, Mycobacterium tuberculosis UT205
# T2 sequence (P9WQ81 whole entry): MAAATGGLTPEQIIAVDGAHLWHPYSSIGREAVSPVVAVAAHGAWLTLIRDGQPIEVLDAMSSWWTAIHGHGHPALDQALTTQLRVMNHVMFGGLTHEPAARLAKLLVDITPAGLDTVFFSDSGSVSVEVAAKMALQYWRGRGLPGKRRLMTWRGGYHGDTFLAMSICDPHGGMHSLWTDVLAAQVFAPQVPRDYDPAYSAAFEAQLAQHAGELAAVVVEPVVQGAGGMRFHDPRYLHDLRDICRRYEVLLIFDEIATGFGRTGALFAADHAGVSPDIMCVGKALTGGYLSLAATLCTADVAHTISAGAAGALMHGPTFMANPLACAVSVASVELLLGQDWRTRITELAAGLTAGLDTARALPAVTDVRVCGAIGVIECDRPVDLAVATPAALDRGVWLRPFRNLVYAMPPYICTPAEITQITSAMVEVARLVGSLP
# [3] = cells; format: functional, cell-based
# [4] = molecular target: T3, Trace amine-associated receptor 1 (Homo sapiens, UniProt Q96RJ0); test: Fluorescence-based cell-based high throughput dose response assay to identify agonists of the human trace amine associated receptor 1 (TAAR1).; format: functional
# T3 sequence (Q96RJ0 whole entry): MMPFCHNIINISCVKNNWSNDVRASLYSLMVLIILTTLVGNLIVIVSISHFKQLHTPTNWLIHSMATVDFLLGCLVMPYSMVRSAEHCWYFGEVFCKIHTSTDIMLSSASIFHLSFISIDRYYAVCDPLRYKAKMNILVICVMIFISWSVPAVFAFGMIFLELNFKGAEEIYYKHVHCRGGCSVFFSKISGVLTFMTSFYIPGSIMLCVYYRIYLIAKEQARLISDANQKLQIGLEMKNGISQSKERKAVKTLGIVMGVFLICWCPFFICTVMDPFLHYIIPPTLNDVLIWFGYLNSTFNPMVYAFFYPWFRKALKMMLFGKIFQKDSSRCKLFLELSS
# [5] = molecular target: T3, Trace amine-associated receptor 1; test: Counterscreen for agonists of the human trace amine associated receptor 1 (hTAAR1): Fluorescence-based cell-based high throughput dose response assay to identify hTAAR1 agonist that also desensitize TAAR1 receptor response.; format: functional
# [6] = cells; format: functional, cell-based; remark: listed apart in the source
# [7] = tested on: Escherichia coli; test: microbe, parasite or virus in culture
# [8] = molecular target: Beta-galactosidase (Escherichia coli, UniProt Q8VNN2); test: Dose response counterscreen for EBI2 assay utilizing the enzyme, b-galactosidase.; format: functional
# Beta-galactosidase, sequence (Q8VNN2 whole entry): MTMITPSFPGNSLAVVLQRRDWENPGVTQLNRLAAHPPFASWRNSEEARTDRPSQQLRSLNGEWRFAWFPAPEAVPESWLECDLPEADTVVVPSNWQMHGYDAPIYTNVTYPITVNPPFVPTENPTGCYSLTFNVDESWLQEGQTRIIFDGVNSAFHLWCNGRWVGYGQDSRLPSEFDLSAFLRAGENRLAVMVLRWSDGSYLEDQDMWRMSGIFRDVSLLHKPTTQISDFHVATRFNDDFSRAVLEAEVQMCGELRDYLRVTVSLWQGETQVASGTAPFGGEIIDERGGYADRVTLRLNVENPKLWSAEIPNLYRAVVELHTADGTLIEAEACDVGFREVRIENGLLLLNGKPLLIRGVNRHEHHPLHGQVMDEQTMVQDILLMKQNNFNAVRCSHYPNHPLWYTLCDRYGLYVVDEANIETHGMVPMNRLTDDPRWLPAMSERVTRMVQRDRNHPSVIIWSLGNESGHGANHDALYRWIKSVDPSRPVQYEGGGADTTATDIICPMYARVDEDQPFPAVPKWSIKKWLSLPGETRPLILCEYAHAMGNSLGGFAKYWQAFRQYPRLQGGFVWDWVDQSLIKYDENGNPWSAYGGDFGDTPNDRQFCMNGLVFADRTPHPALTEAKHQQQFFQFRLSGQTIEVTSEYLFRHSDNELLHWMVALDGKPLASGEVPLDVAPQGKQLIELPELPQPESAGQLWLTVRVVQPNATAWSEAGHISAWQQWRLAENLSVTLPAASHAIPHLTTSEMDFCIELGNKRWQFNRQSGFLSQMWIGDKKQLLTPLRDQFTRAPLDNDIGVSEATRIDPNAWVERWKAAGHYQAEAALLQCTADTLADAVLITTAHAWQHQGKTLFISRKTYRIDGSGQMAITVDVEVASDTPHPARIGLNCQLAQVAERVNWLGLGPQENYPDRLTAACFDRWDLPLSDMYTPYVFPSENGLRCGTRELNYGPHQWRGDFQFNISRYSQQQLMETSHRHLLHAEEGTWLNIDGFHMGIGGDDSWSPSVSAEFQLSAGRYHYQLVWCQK
# [9] = molecular target: Voltage-dependent T-type calcium channel subunit alpha-1H (Homo sapiens, UniProt O95180); format: functional;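 note: channel activity triggered by adding a high calcium stimulation buffer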
# Voltage-dependent T-type calcium channel subunit alpha-1H, sequence (O95180 whole entry): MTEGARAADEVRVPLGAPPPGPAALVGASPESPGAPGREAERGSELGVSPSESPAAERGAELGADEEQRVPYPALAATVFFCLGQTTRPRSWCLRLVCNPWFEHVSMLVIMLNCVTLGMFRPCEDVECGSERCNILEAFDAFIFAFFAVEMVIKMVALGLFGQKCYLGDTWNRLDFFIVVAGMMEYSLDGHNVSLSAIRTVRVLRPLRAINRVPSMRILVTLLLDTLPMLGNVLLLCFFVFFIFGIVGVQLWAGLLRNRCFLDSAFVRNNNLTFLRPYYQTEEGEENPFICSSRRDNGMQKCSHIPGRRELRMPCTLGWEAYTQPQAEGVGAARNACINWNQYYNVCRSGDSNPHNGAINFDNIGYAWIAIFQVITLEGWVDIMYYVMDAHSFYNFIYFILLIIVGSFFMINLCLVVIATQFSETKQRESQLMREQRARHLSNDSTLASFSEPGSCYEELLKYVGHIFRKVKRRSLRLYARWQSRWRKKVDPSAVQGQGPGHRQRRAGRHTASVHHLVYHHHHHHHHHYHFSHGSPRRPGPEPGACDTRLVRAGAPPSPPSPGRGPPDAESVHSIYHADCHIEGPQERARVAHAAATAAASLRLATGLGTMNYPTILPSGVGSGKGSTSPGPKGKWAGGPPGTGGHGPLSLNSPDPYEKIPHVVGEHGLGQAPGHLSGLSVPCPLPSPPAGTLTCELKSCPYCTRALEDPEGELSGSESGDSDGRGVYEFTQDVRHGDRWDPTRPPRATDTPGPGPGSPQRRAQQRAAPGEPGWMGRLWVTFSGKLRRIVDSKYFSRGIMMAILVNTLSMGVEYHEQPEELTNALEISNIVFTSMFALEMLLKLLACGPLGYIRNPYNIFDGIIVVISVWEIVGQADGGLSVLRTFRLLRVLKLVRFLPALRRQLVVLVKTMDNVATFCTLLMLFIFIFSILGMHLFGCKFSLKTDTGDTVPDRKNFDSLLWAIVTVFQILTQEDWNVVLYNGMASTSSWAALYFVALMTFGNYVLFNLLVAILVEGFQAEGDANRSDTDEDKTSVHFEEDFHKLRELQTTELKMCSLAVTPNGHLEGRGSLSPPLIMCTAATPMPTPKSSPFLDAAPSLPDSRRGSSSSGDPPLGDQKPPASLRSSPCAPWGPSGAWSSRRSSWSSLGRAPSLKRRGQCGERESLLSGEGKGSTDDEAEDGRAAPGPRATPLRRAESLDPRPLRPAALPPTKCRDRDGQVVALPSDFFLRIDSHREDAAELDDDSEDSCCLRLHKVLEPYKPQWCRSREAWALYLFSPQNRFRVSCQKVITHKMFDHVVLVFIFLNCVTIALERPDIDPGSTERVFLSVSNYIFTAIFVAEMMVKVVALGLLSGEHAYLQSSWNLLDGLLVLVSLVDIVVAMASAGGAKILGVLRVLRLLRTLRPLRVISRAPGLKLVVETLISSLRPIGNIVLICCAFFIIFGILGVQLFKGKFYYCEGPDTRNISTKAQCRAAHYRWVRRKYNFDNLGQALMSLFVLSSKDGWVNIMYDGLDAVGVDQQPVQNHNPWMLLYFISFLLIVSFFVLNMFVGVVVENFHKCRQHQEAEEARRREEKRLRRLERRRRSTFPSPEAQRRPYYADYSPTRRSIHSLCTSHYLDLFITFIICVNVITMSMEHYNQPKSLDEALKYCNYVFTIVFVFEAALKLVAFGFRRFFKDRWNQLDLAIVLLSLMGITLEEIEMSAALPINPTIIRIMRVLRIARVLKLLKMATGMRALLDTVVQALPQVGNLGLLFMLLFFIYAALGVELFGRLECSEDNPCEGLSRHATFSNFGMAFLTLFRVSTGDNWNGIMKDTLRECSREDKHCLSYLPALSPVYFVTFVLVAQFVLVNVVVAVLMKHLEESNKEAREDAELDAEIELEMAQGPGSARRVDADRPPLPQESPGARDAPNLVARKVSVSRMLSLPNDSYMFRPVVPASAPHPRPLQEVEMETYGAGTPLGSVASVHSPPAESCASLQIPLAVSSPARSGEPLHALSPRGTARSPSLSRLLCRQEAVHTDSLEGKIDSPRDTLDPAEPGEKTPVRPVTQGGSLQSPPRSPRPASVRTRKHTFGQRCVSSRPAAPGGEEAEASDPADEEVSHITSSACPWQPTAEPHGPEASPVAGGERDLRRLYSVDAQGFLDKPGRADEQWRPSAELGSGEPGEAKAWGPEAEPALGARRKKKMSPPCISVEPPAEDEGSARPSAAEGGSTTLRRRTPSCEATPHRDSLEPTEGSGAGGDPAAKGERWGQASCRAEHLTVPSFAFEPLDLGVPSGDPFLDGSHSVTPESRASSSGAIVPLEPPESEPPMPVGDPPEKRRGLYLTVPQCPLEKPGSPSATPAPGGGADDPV
# [10] = molecular target: Genome polyprotein (dengue virus type 2, UniProt P29990); test: flavivirus cap methylation enzyme inhibition – biochemical, confirmation dose response, primary screen (AID 588689); format: functional
# Genome polyprotein, sequence (P29990 2492-3391 limits assumed): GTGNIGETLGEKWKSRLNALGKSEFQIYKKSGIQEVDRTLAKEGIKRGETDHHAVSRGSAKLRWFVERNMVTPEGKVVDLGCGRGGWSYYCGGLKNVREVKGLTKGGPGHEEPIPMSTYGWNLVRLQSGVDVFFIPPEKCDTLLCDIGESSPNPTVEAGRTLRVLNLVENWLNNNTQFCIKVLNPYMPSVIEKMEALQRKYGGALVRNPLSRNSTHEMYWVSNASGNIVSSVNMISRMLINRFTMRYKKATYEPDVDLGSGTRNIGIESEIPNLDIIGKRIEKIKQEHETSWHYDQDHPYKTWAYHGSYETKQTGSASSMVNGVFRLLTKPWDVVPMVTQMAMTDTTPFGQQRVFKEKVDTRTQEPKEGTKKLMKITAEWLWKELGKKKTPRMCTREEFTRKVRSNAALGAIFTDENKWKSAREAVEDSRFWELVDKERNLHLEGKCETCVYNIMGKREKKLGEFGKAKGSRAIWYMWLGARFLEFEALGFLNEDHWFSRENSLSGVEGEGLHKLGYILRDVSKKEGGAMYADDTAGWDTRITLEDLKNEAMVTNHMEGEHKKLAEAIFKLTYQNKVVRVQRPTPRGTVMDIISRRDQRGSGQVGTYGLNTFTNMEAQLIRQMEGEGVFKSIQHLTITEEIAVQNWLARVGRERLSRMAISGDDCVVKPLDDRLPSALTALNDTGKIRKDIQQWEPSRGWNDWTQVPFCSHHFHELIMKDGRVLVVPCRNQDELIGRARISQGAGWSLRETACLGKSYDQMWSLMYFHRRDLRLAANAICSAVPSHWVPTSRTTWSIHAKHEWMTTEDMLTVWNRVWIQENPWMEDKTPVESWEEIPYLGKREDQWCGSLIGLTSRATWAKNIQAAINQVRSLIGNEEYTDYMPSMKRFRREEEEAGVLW
# [11] = molecular target: T4, RNA-binding protein pos-1 (Caenorhabditis elegans, UniProt G5EF15); test: disruptors of C. elegans POS-1 RNA interaction – biochemical, fluorescence polarization, dose response (AID 1964);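 note: purified POS-1 fused to maltose binding protein made in E. coli; potency of compounds blocking POS-1 binding to fluorescent RNA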
# T4 sequence (G5EF15 whole entry): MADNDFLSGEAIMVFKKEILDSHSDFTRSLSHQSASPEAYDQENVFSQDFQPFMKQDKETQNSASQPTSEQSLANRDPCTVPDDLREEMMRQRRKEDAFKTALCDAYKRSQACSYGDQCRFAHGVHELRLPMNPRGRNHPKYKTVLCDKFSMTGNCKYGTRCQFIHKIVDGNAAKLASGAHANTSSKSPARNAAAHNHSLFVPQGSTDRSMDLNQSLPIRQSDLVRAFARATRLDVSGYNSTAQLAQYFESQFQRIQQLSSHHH
# [12] = molecular target: T5, Zinc finger protein mex-5 (Caenorhabditis elegans, UniProt Q9XUB2); test: potency of MEX-5 RNA-binding blockers – biochemical, C. elegans, fluorescence polarization, dose response (AID 1960)
# T5 sequence (Q9XUB2 whole entry): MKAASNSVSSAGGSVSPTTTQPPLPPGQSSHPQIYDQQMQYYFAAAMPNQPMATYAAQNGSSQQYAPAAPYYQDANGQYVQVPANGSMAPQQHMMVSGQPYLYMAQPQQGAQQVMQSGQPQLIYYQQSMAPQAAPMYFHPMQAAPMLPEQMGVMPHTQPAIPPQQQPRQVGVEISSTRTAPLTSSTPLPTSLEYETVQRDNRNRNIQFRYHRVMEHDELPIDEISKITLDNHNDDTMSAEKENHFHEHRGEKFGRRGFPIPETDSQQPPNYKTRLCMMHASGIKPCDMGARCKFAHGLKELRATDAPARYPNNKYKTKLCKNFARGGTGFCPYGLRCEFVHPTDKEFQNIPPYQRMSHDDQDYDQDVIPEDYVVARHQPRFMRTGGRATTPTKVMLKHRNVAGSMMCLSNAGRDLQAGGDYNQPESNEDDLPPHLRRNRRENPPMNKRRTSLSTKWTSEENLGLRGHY
# [13] = molecular target: T6, Phosphomannomutase 2 (Homo sapiens, UniProt O15305); test: Counter screen SAR assay for PMM2 inhibitors via a fluorescence intensity assay. [Related pubchem assays (depositor defined):AID1545, AID1574]
# T6 sequence (O15305 whole entry): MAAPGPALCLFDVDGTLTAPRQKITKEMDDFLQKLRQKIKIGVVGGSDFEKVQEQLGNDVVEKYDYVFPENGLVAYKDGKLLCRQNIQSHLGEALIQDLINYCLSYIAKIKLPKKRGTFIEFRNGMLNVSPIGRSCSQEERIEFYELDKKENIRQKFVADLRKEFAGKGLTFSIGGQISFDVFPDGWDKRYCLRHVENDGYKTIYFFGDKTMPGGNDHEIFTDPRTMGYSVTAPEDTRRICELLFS
# [14] = molecular target: T7, Mannose-6-phosphate isomerase (Homo sapiens, UniProt P34949); test: phosphomannose isomerase inhibition – biochemical, fluorescence intensity, confirmation (AID 1535)
# T7 sequence (P34949 whole entry): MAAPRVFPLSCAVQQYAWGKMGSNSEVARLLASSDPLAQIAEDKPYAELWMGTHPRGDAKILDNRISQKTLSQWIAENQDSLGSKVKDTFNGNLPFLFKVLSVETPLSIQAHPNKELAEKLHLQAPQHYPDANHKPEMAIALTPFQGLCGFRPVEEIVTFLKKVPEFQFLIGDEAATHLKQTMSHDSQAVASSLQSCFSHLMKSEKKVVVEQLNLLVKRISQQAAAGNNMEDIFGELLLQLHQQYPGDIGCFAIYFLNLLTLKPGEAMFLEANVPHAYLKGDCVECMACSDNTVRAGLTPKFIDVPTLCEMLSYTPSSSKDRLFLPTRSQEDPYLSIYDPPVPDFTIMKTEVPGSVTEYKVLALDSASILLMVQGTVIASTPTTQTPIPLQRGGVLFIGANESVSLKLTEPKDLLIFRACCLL
# [15] = fluconazole-exposed Candida albicans growth modulators – fluorescence, retest, confirmation (AID 2467); format: functional, cell-based
# [16] = NIH-3T3 fibroblast cytotoxicity, dose response, cytotoxicity control, cell-based, fluorescence, Alamar Blue, secondary assay (AID 2327); format: functional;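 note: NIH-3T3 mouse fibroblasts cultured with fluconazole at 8 µg/mL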
# [17] = molecular target: Fatty acid synthase (Homo sapiens, UniProt P49327); test: inhibition of human FAS-TE enzyme activity – biochemical, kinetic fluorescence intensity, dose response (AID 624326); format: functional;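 note: rate of fluorescence rise from hydrolysis of a fluorogenic O-methyl fluorescein ester substrate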
compound,measurement,setting,value
O=S(=O)(NCCc1csc(-c2ccccc2)n1)c1cccnc1,EC50,[1],3.76 µM (active)
COCCNC(=O)C[C@H]1CC[C@@H]2[C@H](COc3ccc(NC(=O)Nc4cccc(F)c4)cc3C(=O)N2C)O1,AC50,[2],6.86 µM (active)
O=C(NCCc1ccccn1)c1ccc(OC2CCN(CCc3ccccc3)CC2)cc1,EC50,[1],1.19 µM (active)
COc1ccc(NS(=O)(=O)c2ccc(NC(=S)NC(=O)C(C)C)cc2)cc1,EC50,[3],19 µM (inactive)
same,EC50,[4],1.99 µM (active)
same,IC50,[5],6.23 µM (active)
same,IC50,[6],11.5 µM (inactive)
Cc1cc(C)n(CCCNC(=O)COc2ccc([N+](=O)[O-])cc2)n1,AC50,[7],89.1 µM (active)
CCCNC(=O)c1cn(CC)c2cc(N3CCN(C)CC3)c(F)cc2c1=O,AC50,[7],2.04 µM (active)
Cc1cc(C)c(S(=O)(=O)N2CCN(C(=O)c3cc4ccccc4o3)CC2)c(C)c1,IC50,[8],> 80 µM (inactive)
Cc1ccc(S(=O)(=O)N(CC(=O)N2CCN(c3ccccc3F)CC2)C2CCCCC2)cc1,EC50,[9],2.58 µM (active)
CN(C)CCCN(C(=O)c1ccc(S(=O)(=O)N2CCc3ccccc32)cc1)c1nc2ccc(F)cc2s1,EC50,[1],2.66 µM (active)
CC(C)[C@H](NC(=O)c1ccc(Cl)c(Cl)c1)C(=O)N1CCC[C@H]1C(=O)NCCc1ccccc1Cl,EC50,[3],> 29.9 µM (inactive)
same,EC50,[4],1.45 µM (active)
same,IC50,[5],1.53 µM (active)
same,IC50,[6],> 29.9 µM (inactive)
Cc1ccc2[nH]cc(CCNC(=O)Nc3ccccc3)c2c1,EC50,[9],5.23 µM (active)
O=C(NCCCN1CCN(c2cccc(Cl)c2)CC1)C1(S(=O)(=O)c2ccc(Cl)cc2)CC1,EC50,[9],6.17 µM (active)
CCOc1ccc(NC(=O)c2ccc(NC(=O)c3cn4c5c(c(N6CCN(C)CC6)c(F)cc5c3=O)OCC4C)cc2)cc1 (configuration not stated),AC50,[7],0.645 µM (active)
CCC(=O)OC1(C)C(=O)C=C2C=C(C3CC3)OC=C2C1=O (configuration not stated),IC50,[10],> 100 µM (active)
same,EC50,[11],> 300 µM (not active)
same,EC50,[12],30.4 µM (active)
Cc1csc2c(N3CCN(C(S)=Nc4ccc(C(F)(F)F)cc4)CC3)ncnc12,EC50,[1],1.68 µM (active)
O=[N+]([O-])c1ccc(/N=c2\ssnc2Cl)c2ccccc12,IC50,[13],> 100 µM (inactive)
same,IC50,[14],> 100 µM (inactive)
CN(C)c1ccc(/N=c2\ssnc2Cl)cc1,IC50,[13],> 100 µM (inactive)
same,IC50,[14],12.4 µM (active)
O=C(CN1CCCCCC1)N1c2ccccc2Sc2ccc(C(F)(F)F)cc21,EC50,[9],7.61 µM (active)
COc1ccccc1N1CCN(C(=O)c2cc3cc(Cl)ccc3[nH]2)CC1,EC50,[15],> 38 µM (not active)
same,IC50,[8],> 80 µM (inactive)
same,EC50,[16],38.6 µM (active)
CCN1CCN(C(=O)C(NS(=O)(=O)c2ccc3nc(C)sc3c2)C(C)C)CC1 (configuration not stated),AC50,[7],> 150 µM (inactive)
Cc1ccc2nc(-n3sc4ccccc4c3=O)sc2c1,IC50,[13],> 100 µM (inactive)
same,IC50,[14],> 50 µM (inactive)
COc1ccc(N(CC(=O)NCCSc2ccccc2)S(=O)(=O)c2ccccc2)cc1,IC50,[8],> 80 µM (inactive)
CCOC(=O)c1sc(NC(=O)C(CC)OC(=O)C(CC(C)C)NC(=O)c2ccccc2)nc1C (configuration not stated),EC50,[9],5.2 µM (active)
O=C(c1cc(=O)c2cc(Cl)ccc2o1)N1CCN(Cc2ccccc2)CC1,IC50,[8],> 80 µM (inactive)
COCc1cc(C)nc(SCC[N+](C)(C)CC(=O)Nc2ccccc2)c1C#N,IC50,[17],12.4 µM (active)
O=C(c1nc(C(F)(F)F)[nH]c1-c1ccccc1)N1CCc2ccccc2C1,EC50,[3],> 29.9 µM (inactive)
same,EC50,[4],2.77 µM (active)
same,IC50,[5],9.85 µM (active)
same,IC50,[6],> 29.9 µM (inactive)
O=C(Nc1nc2c(s1)CCCC2)c1cccc(S(=O)(=O)N2CCCc3ccccc32)c1,AC50,[7],134 µM (active)
Cc1cc(C)c2cc(C#N)c(N3CCNCC3)nc2c1,EC50,[3],> 30 µM (inactive)
same,EC50,[4],1.55 µM (active)
same,IC50,[5],4.28 µM (active)
same,IC50,[6],> 30 µM (inactive)
